As a reminder, the HC50 is the concentration that lyses half of the red blood cells. A word on the logP: it is the decadic logarithm of the partition coefficient of the neutral form, usually between octanol and water.

Here are results for seven compounds from patent publication US20150225454A1, “TETRABRANCHED PEPTIDES AND ANALOGUES AS A NEW CLASS OF ANTIMICROBIALS AND THEIR PREPARATION THEREOF” (priority 2012, published 2015).

Converted amounts (≈) assume the structure as drawn. “Also recorded” adds a separate entry of the source. Like-named read-outs stand apart in the source and are kept apart here. Where a SMILES comes first, the peptide text is derived from it. Bridges are numbered along the chain shown (N, C = ends). Roman numbers before positions name the chains, in order.

One series concerns C. albicans. The experiment in a line: microbe, parasite or virus in culture. Format: cell-based. The protocol:
The yeast strains were cultivated and suspended in Sabouraud's Dextrose (SD) broth diluted at one sixth at a starting OD600=˜0.08 in a flat-bottomed microtitre plate. A serial dilution of peptide in the same broth was mixed with the inoculum to give a final peptide concentration of 0.4-22 μM. The antifungal activity was assessed by monitoring the OD600 in cycles of 30 minutes and an orbital shaking at 100 rpm using an Infinite M200 microplate reader (Tecan Group Ltd., Switzerland) for 24/48 h at 37° C. Cultures without peptides were used as positive controls and broth alone or with 22 μM peptide served as negative controls. The minimum concentration required for complete inhibition was assessed by both visible observations as well as by measuring the OD600 and taken as the MIC. Each experiment was repeated in triplicates.

The subject of series [1] is C. albicans (ATCC 10231 and DF2672R). Format: cell-based. The protocol:
The time-kill kinetics was measured for two strains of C. albicans (ATCC 10231 and DF2672R). The cultures were grown overnight in SD broth and the cell concentration was adjusted to 10^5-10^6 CFU/ml with phosphate buffer. The peptide or antifungals were added to the individual cultures. […] The test solution was incubated at 37° C. with constant shaking. 100 μL of the suspension is withdrawn at predetermined time points, serially diluted (10^2 or 10^3 fold) and poured into the SDA plate. The plate was incubated for 48 h at 37° C. for colony counting. The data were expressed in terms of % cell viability relative to the positive control.

In the next series the test system is rabbit red blood cells. Format: cell-based. The method, then:
Haemolytic activity of peptides and antifungal drugs were determined against rabbit red blood cells (Oren et al., 1997). Briefly, serial dilution of peptides/antifungals in PBS was mixed with rRBC (final concentration 4% v/v), incubated at 37° C. for 1 h and centrifuged at 3000 rpm for 10 minutes. The release of hemoglobin in the supernatant was monitored by measuring the hemoglobin absorbance at 576 nm. The readings from cell suspension in PBS (without any additives) or 1% Triton-X100 were used as 0% or 100% haemolysis.

The subject of the next series is fungi. Conditions: cited from earlier work.
For series [2] the following is noted: temperature or pH; cited from earlier work.
For series [3] the following is noted: cited from earlier work.
Series [4] can be described thus: Calcein release from fungal model membrane SUVs. Conditions: peptide:lipid ratio 1:30 and 1:15. The protocol:
For the preparation of PC/PE/PI or PS/Erg SUV, the lipids were dissolved in chloroform/methanol (2:1, v/v) in a glass tube. Ergosterol was dissolved in same solvent and added to lipid mixture to make final ergosterol content of 15 wt %. The Lipid-ergosterol mixture was dried using nitrogen gas to form lipid layer. The film was hydrated in a buffer containing 20 mM PBS (pH 7), vortexed and sonicated. Each cycle of sonication (5 sec, 40° C.) is followed by freezing in liquid nitrogen and thawing on a water bath kept at 37° C. The procedure was repeated 5-6 times until an optically clear dispersion appeared. The SUV was divided into two parts. To the first part 50 mM calcein was added and incubated for 1 h. The excess calcein was removed by injecting 100 μL of the calcein-loaded SUV's into a Ultrahydrogel™ 250 (7.8 mm×300 mm) column equilibrated with 20 mM PBS (pH 7.0) and eluted isochratically at a flow rate of 1 ml/min for 1.5 column volumes. The calcein-loaded liposomes were mixed with calcein-free liposome (1:1) to adjust final liposome concentration. Peptide concentration was added to obtain 1:30 or 1:15 peptide:liposome ratio. Changes in the fluorescence signal after addition of peptide or Triton X-100 was measured on a PTI spectrofluorometer, using an excitation wavelength of 480 nm and emission wavelength of 512 nm. The Percentage calcein released at each time point was calculated using the equation: […]
Similar protocol was followed for the preparation of PC/Cholesterol SUVs.

For the next series, the system named is IOBA-NHC cells. The format is cell-based, human. The conditions noted are these: 24 h incubation; read-out: EC50 (concentration that reduces the viable cells by 50%). An outline of the steps:
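Subconfluent (~70%) IOBA-NHC conjunctival cells, passages 50–80, seeded ~10,000/well and grown 24 h at 37 °C in supplemented DMEM/F12 with 10% FBS. Exposed to peptide at 0.22–225 μM; cytotoxicity followed over time by MultiTox-Fluor […] fluorescence (ex 485/em 520 nm).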

In the series on C. albicans (Candida albicans, C. albicans DF2672R), `C[C@@H]1C/C=C/C=C/C=C/C=C/[C@H](O[C@@H]2O[C@H](C)[C@@H](O)[C@H](N)[C@@H]2O)C[C@@H]2O[C@](O)(C[C@@H](O)C[C@H]3O[C@@H]3/C=C/C(=O)O1)C[C@H](O)[C@H]2C(=O)O` [Natamycin, reference compound] yielded an MIC of 15 µM (≈ 9.99 µg/mL). In addition, in series [1] (ATCC strain, 16×MIC), the “time required to achieve similar endpoints (4 log reduction)” value stood at 24 h. The fungicidal action entry in series [1] (C. albicans DF2672R, 2×MIC, 24 h exposure) is “no fungicidal action”. This compound showed an HC50 in the series with rabbit red blood cells (rabbit, 1 h) of 139.6 ± 0.18 µM. Also, the Activity entry in the series on fungi was “Broad spectrum”.

For the compound `Nc1nc(=O)[nH]cc1F` [Peptide 5-FC, 5-FC], the Activity result with fungi is “Not active against filamentous fungii”. For the same compound, in series [2], the Solubility was 1.05e+06 mg/L (≈ 8130 mM). Also, the logP in series [3] was −1.1.

As for `CC(C)[C@H](N)C(=O)N[C@@H](CCCNC(=N)N)C(=O)NCC(=O)N[C@@H](CCCNC(=N)N)C(=O)N[C@H](C(=O)N[C@@H](CCCNC(=N)N)C(=O)N[C@@H](CCCCN)C(=O)N[C@@H](CCCNC(=N)N)C(=O)NCCCC[C@H](NC(=O)[C@H](CCCNC(=N)N)NC(=O)[C@H](CCCCN)NC(=O)[C@H](CCCNC(=N)N)NC(=O)[C@@H](NC(=O)[C@H](CCCNC(=N)N)NC(=O)CNC(=O)[C@H](CCCNC(=N)N)NC(=O)[C@@H](N)C(C)C)C(C)C)C(=O)NCCCC[C@H](NC(=O)[C@H](CCCCNC(=O)[C@H](CCCNC(=N)N)NC(=O)[C@H](CCCCN)NC(=O)[C@H](CCCNC(=N)N)NC(=O)[C@@H](NC(=O)[C@H](CCCNC(=N)N)NC(=O)CNC(=O)[C@H](CCCNC(=N)N)NC(=O)[C@@H](N)C(C)C)C(C)C)NC(=O)[C@H](CCCNC(=N)N)NC(=O)[C@H](CCCCN)NC(=O)[C@H](CCCNC(=N)N)NC(=O)[C@@H](NC(=O)[C@H](CCCNC(=N)N)NC(=O)CNC(=O)[C@H](CCCNC(=N)N)NC(=O)[C@@H](N)C(C)C)C(C)C)C(=O)N[C@@H](CCCCN)C(=O)O)C(C)C` [Sc_B4010] (I: H-VRGRVRKRKKK-OH / II: H-VRGRVRKRK / III: H-VRGRVRKR / IV: H-VRGRVRKR; amide I:9-IV:C, I:10-II:C, II:9-III:C; N-terminus and C-terminus assumed), the “increase in MIC on scrambling the sequence of B4010” value in the series on C. albicans is recorded as 2-4 fold. The calcein release entry in series [4] is listed as “decreased calcein release”; in series [4] (listed as scrambled peptide), “about 41%”.

For `C[C@@H]1[C@H](O)[C@@H](C)/C=C/C=C/C=C/C=C/C=C/C=C/C=C/[C@H](O[C@@H]2O[C@H](C)[C@@H](O)[C@H](N)[C@@H]2O)C[C@@H]2O[C@](O)(C[C@@H](O)C[C@@H](O)[C@H](O)CC[C@@H](O)C[C@@H](O)CC(=O)O[C@H]1C)C[C@H](O)[C@H]2C(=O)O` [Amphotericin B, reference compound], the “MIC for two C. albicans clinical isolates” value against C. albicans (two C. albicans clinical isolates) was determined as 1.4 µM. The “time to maximal effect” value in series [1] (C. albicans DF2672R, 16×MIC) is “less than 8 h”. This compound displayed an HC50 with rabbit red blood cells of 59.4 ± 7.8 µM. In the series with IOBA-NHC cells, the EC50 was 134 ± 16 µM. Also, the Activity entry with fungi is given as “Broad spectrum; also recorded: Excellent agains Aspergilus & Candida”.

Turning to `CN(C/C=C/C#CC(C)(C)C)Cc1cccc2ccccc12` [Terbinafine], the Activity result in the series with fungi is “Broad spectrum”. The Solubility in series [2] is 0.00074 mg/L (≈ 2.54e-06 mM). In series [3], the logP was 5.9.

As to `CC(C)[C@H](NC(=O)[C@H](CCCCN)NC(=O)[C@H](CCCNC(=N)N)NC(=O)CNC(=O)[C@@H](N)CCCNC(=N)N)C(=O)N[C@H](C(=O)N[C@@H](CCCNC(=N)N)C(=O)N[C@@H](CCCNC(=N)N)C(=O)NCCCC[C@H](NC(=O)[C@H](CCCNC(=N)N)NC(=O)[C@H](CCCNC(=N)N)NC(=O)[C@@H](NC(=O)[C@@H](NC(=O)[C@H](CCCCN)NC(=O)[C@H](CCCNC(=N)N)NC(=O)CNC(=O)[C@@H](N)CCCNC(=N)N)C(C)C)C(C)C)C(=O)N[C@@H](CCCCN)C(=O)O)C(C)C` [Peptide B2088, reference compound] (I: H-RGRKVVRRKK-OH / II: H-RGRKVVRR; amide I:9-II:C; N-terminus and C-terminus assumed), the “decrease in MIC compared to the monomer” value in the series with C. albicans is recorded as approximately 14 ×. The calcein release entry in series [4] was “decreased calcein release”.

For `C[C@@H]1[C@H](O)[C@@H](C)/C=C/C=C/CC/C=C/C=C/C=C/C=C/C(O[C@H]2O[C@H](C)[C@@H](O)[C@H](N)[C@@H]2O)CC2O[C@](O)(CC(O)C(O)CCC(O)CC(O)CC(O)CC(=O)O[C@H]1C)CC(O)C2C(=O)O` (stereo partly drawn) [Nystatin], the Activity result with fungi is given as “Broad spectrum”. Moreover, the Solubility in series [2] is reported as 360 (24° C.) mg/L. Besides, the log partition coefficient (logP) in series [3] was 0.5.
